Structures can show the parent of a compound that is named as a salt.
Assays:
[1] = Body weight of POI model mice before modeling, after modeling and after treatment; assay type: in vivo; settings: for Body weight before modeling: D 0, 100 mg/kg/d oral; for Body weight after modeling: D 7, 100 mg/kg/d oral; for Body weight after treatment: D 13, 100 mg/kg/d oral
Experimental: Animal model establishment: A total of 34 C57 female mice (8-week-old) were selected and intraperitoneally injected with the ratio of 120 mg/kg cyclophosphamide (SIGMA) and 30 mg/kg Busulfan (Aladdin) once a day for 1 week at the dose of 0.1 mL/10 g to establish the model of POI.
Grouping: 34 POI model mice were randomly divided into four groups: sodium fumarate (SF) treatment group (n=9), hyodeoxycholic acid (HDCA) treatment group (n=8), sodium fumarate plus hyodeoxycholic acid (mass ratio 1:1) combination (SF+HDCA) treatment group (n=8) and normal saline (Vehicle) group (n=9). Mice in the SF group were given oral administration of SF at the ratio of 100 mg/kg/d body weight, mice in the HDCA group were given oral administration of HDCA at the ratio of 100 mg/kg/d body weight, and mice in the combination group were given oral administration of SF and HDCA at the ratio of 100 mg/kg/d body weight. SF and HDCA were dissolved with 0.9% normal saline when used. Mice in the vehicle group were given the same amount of normal saline orally. All the mice were treated consecutively for 12 days.
Body weight were recorded at three time points, before modeling (at the beginning of treatment), after modeling and after treatment.
Animal model establishment: A total of 24 C57 mice (8-week-old) were selected and intraperitoneally injected with the ratio of 120 mg/kg cyclophosphamide and 30 mg/kg Busulfan once a day for 1 week at the dose of 0.1 mL/10 g to establish the model of POI.
Grouping: 24 POI model mice were randomly divided into four groups: dimethyl fumarate (DMF) treatment group (n=5), hyodeoxycholic acid (HDCA) treatment group (n=6), dimethyl fumarate plus hyodeoxycholic acid (mass ratio=1:1) combination (DMF+HDCA) treatment group (n=7) and normal saline (Vehicle) group (n=6). Mice in the DMF treatment group were orally administrated at the ratio of 100 mg/kg/d body weight. Mice in the HDCA treatment group were given oral administration of HDCA at the ratio of 100 mg/kg/d body weight, and mice in the combination group were given oral administration of DMF and HDCA at the ratio of 100 mg/kg/d body weight. Once daily, DMF and HDCA were dissolved in 0.9% normal saline when used. Mice in normal saline group were given the same amount of normal saline orally every day. The drug was administered for 12 days.
Body weight were recorded at three time points, before modeling (at the beginning of treatment, the 0th day), after modeling (the 7th day) and after treatment (the 13th day).
The body weight of POI model mice of each group was measured before modeling, after modeling and after treatment.

POI mice [2] = experiment: Serum FSH level in POI mice; assay type: in vivo; settings: for FSH: serum, after 12 days 100 mg/kg/d oral
Source text: (§1) Biomarkers mentioned herein, such as follicle stimulating hormone (FSH), estrogen (e.g., E2), and superoxide dismutase (SOD), malondialdehyde (MDA), relative reactive oxygen species (ROS), and lactate dehydrogenase (LDH), etc., can be detected using methods commonly known in the field. Detection methods typically cover methods that quantify the level of a biomarker in a sample (quantitative methods). Which of the following methods are suitable for qualitative and/or quantitative detection of biomarkers is generally known to those skilled in the field. Samples can be conveniently measured, for example for proteins using immunoassays such as ELISA, RIA, etc., which are commercially available.
(§2) After 12 days of administration, half of the mice in each group were sacrificed, and their blood was collected and kept still. The serum was separated after centrifugation at 4500 rpm and stored in a refrigerator at −80° C. for future use to measure levels of follicle stimulating hormone, estrogen, and the indexes of oxidative stress such as superoxide dismutase (SOD) and malondial dehyde (MDA).
as §2, with “kept in” for “kept”, “levals” for “levels”, “malondialdehyde” for “malondial dehyde”
• 1. Hormone levels in mice blood of Example 1 are measured in this embodiment.

POI mice [3] = experiment: Serum estradiol (E2) level in POI mice; assay type: in vivo; settings: for E2: serum, after 12 days 100 mg/kg/d oral
Source text: as §1, §2
as §2, with “kept in” for “kept”, “levals” for “levels”, “malondialdehyde” for “malondial dehyde”

POI mice [4] = experiment: Serum superoxide dismutase (SOD) level, oxidative stress; assay type: in vivo
Source text: as §1, §2
as §2, with “kept in” for “kept”, “levals” for “levels”, “malondialdehyde” for “malondial dehyde”
(§3) The oxidative stress hypothesis believes that the reduction of antioxidant components in the body leads to the weakening of the ability to remove free radicals, which leads to oxidative damage of biological macromolecules, and the imbalance of cellular oxidative and antioxidant functions, which leads to oxidative stress, and then leads to disease and aging. Oxygen free radicals act on unsaturated fatty acids of lipids to generate lipid peroxides, including malondialdehyde (MDA) and so on. The antioxidant defense system of scavenging free radicals includes superoxide dismutase (SOD) and so on. Recently, oxidative stress has been reported to be associated with ovarian aging and POI in primates. Therefore, this embodiment examined the effects of DMF, HDCA, and DMF+HDCA on oxidative stress in mice with premature ovarian failure, and the results are shown in Table 5, FIGS. 9 to 12.

POI mice [5] = experiment: Serum malondialdehyde (MDA) level, oxidative stress; assay type: in vivo
Source text: as §1, §2
as §2, with “kept in” for “kept”, “levals” for “levels”, “malondialdehyde” for “malondial dehyde”
as §3

POI mice [6] = experiment: Serum relative reactive oxygen species (ROS) level; assay type: in vivo
Source text: as §1, §3

ovarian tissues = experiment: RNA transcription level sequencing of ovarian tissues, differentially expressed genes; assay type: in vivo, mice; settings: ovarian tissue RNA sequencing, FC>2, Q<0.05
Experimental: Mice were sacrificed after various treatments, and ovarian tissues were taken, snap-frozen in liquid nitrogen, stored at −80° C., and sent to Annoroad for RNA transcription level sequencing. Bioinformatics analysis and mapping were performed on the sequencing results. […] The differential genes of the three treatment groups were intersectioned. […] These differential gene sets were then subjected to Gene Ontology function (GO) enrichment (FC>2, Q<0.05) (FIG. 16) and signaling pathway (KEGG) analysis mapping (FIG. 17), respectively.

POI model mice [7] = experiment: Estrous cycle observation by vaginal smear cytology in POI model mice; assay type: in vivo
POI model mice [8] = experiment: as above; assay type: in vivo; remark: listed apart in the source
Experimental: Cytological observation of vaginal smear was performed daily.
The vagina of mice was exposed, and about 30 μl of normal saline was dripped into the vagina, gently aspirated onto the slide, and observed under the microscope. Staining was performed when necessary, fixed with 95% ethanol for 10 minutes, stained with hematoxylin in aqueous solution for 5-8 minutes, washed with running water for color separation, and then stained with eosin for 3 minutes. After drying. the slices were sealed with neutral gum.
The vagina of mice was exposed, and about 30 μl of normal saline was dripped into the vagina, gently aspirated onto the slide, and observed under the microscope. Staining was performed when necessary, stained with hematoxylin in aqueous solution for several minutes after drying, washed with running water for color separation, and then stained with alchhol eosin for several seconds. The slices were sealed with neutral gum.
During the estrous cycle, a series of histological and physiological changes occur in the reproductive and endocrine systems of mice. According to these changes, the estrous cycle can be divided into proestrous (P), estrous (E), metestrum (M) and diestrum (D). • 1. Observation of estrous cycle in mice of Example 1
After modeling and treatment, there were 6 mice left in the normal saline group, 6 mice left in the sodium fumarate treatment group, 7 mice left in the hyodeoxycholic acid group, and 7 mice left in the sodium fumarate and hyodeoxycholic acid combination group. […] The estrous cycle was divided into four periods (P: proestrous; E: estrous period; M: metestrum; D: diestrum) for vaginal smear cytological observation, the results are shown in FIG. 3.
The estrous cycle of mice was plotted according to the cytological results of vaginal smears observed for 12 consecutive days, and the results are shown in FIG. 4. The estrous cycle of mice is about 4 to 5 days, which is divided into four periods alternately. […] The estrous cycle of 4 mice was recovered in sodium fumarate treatment group. The estrous cycle of 3 mice was recovered in HDCA group. The estrous cycle of 6 mice was recovered in group treated with SF and HDCA.

POI mice [9] = experiment: Serum lactate dehydrogenase (LDH) level; assay type: in vivo
Source text: as §1

[10] = tested on: aged mice with ovarian dysfunction; experiment: Ovulation after controlled ovarian hyperstimulation in aged mice; assay type: in vivo; settings: fourteen months old mice
Experimental: In this Embodiment, the effect of sodium fumarate and hyodeoxy cholic acid on ovulation in aged mice with ovarian dysfunction (ovarian function decline due to natural aging) was examined. Fourteen months old mice were divided into three groups: control group (n=6), sodium fumarate group (SF, n=4), sodium fumarate and hyodeoxy cholic acid group (SF+HDCA, n=3).
Methods: After controlled ovarian hyperstimulation (48 hours after pregnant horse serum injection, followed by chorionic gonadotropin injection), the ampulla of fallopian tubes of mice was collected 14-16 hours later, and the number of oocytes obtained was recorded. […] All 4 mice in the SF group ovulated.

[11] = Example 2, FIG. 8, not statistically significant
[12] = serum, POI mice after treatment
[13] = Example 2, during drug administration, FIG. 5B
[14] = Example 1, during drug administration, FIG. 4B

COC(=O)/C=C/C(=O)OC [DMF, dimethyl fumarate]
Body weight before modeling ([1]; Example 2 POI mice): 19.22 ± 1.39 g | Body weight after modeling ([1]; Example 2 POI mice): 16.54 ± 1.44 g | Body weight after treatment ([1]; Example 2 POI mice): 16.98 ± 1.99 g | Serum FSH level compared with the normal saline group (POI mice [2]; [11]): certain decreasing trend | FSH (POI mice [2]; Example 2 POI mice): 2.39 ± 1.07 mIU/mL | Serum E2 level compared with the normal saline group (POI mice [3]; [11]): certain tendency to decrease | E2 (POI mice [3]; Example 2 POI mice): 48.86 ± 11.41 pg/mL | Activity of SOD compared with the normal saline group (POI mice [4]; FIG. 9, difference not significant): increased | SOD (POI mice [4]; [12]): 14.42 ± 9.05 U/mL | MDA activity compared with the normal saline group (POI mice [5]; FIG. 10, no significant difference): reduced to some extent | MDA (POI mice [5]; [12]): 1.83 ± 3.06 nmol/mL | ROS levels compared with the normal saline group (POI mice [6]; FIG. 11): significantly reduced | ROS (POI mice [6]; relative ROS level in serum, POI mice after treatment): 4.610 ± 0.476 | Number of genes down-regulated compared with the control group (ovarian tissues): 5261 genes | Number of genes up-regulated compared with the control group (ovarian tissues): 1547 genes | Effect on mice with premature ovarian failure (conclusion from estrous cycle) (POI model mice [7]; Example 2): preventive and therapeutic effects | Average rate of diestrum (D) in estrous cycle (POI model mice [7]; [13]): 55.00% | Average rate of estrous (E) stage in estrous cycle (POI model mice [7]; [13]): 15.00% | Average rate of metestrum (M) in estrous cycle (POI model mice [7]; [13]): 2.50% | Average rate of proestrous (P) in estrous cycle (POI model mice [7]; [13]): 27.50% | Number of mice with estrous cycle recovered (POI model mice [7]; Example 2, 12 days observation, DMF n=5, HDCA n=6, DMF and HDCA n=7): 4 mice

O=C([O-])/C=C/C(=O)[O-].[Na+].[Na+] [SF, sodium fumarate]
Body weight before modeling ([1]; Example 1 POI mice): 18.77 ± 0.63 g | Body weight after modeling ([1]; Example 1 POI mice): 18.15 ± 0.92 g | Body weight after treatment ([1]; Example 1 POI mice): 18.07 ± 1.03 g | Weight recovery after chemotherapy ([1]; Example 1 POI mice, FIG. 2A): significantly beneficial | Weight recovery after chemotherapy ([1]; Example 2 POI mice, FIG. 2B): significantly beneficial | Effect on mice with premature ovarian failure (conclusion from estrous cycle) (POI model mice [8]; Example 1): preventive and therapeutic effects | Average rate of diestrum (D) in estrous cycle (POI model mice [8]; [14]): 20.83% | Average rate of estrous stage (E) in estrous cycle (POI model mice [8]; [14]): 20.83% | Average rate of metestrum (M) in estrous cycle (POI model mice [8]; [14]): 18.10% | Average rate of proestrous (P) in estrous cycle (POI model mice [8]; [14]): 40.28% | Number of mice with estrous cycle recovered (POI model mice [8]; Example 1, 12 days observation, 6 SF, 7 HDCA, 7 SF and HDCA mice left): 4 mice | Serum FSH level compared with the normal saline group (POI mice [2]; Example 1, FIG. 6): certain increasing trend | FSH (POI mice [2]; Example 1 POI mice): 8.56 ± 2.59 mIU/mL | Serum E2 level compared with the normal saline group (POI mice [3]; Example 1, FIG. 7): tendency to increase | E2 (POI mice [3]; Example 1 POI mice): 57.24 ± 4.56 pg/mL | Activity of LDH compared with the normal saline group (POI mice [9]; FIG. 12): reduced to some extent | LDH (POI mice [9]; [12]): 3136.09 ± 294.67 U/mL | Restoration of ovulation in aged mice [10]: can restore ovulation | Number of mice that ovulated ([10]; SF n=4, SF+HDCA n=3, FIG. 13): 4 mice
